What was measured:
[1] = system: Epidermal growth factor receptor (Homo sapiens), P00533 [L858R,T790M,C797S]; experiment: Inhibition of EGFR L858R/T790M/C797S mutant (unknown origin) at 0.5 uM relative to control
PC-9 [2] = experiment: Antiproliferative activity against human PC-9 cells expressing EGFR L858R/T790M/C797S mutant assessed as inhibition of cell growth incubated for 72 hrs by CCK-8 assay; type: functional, cell-based; conditions: PC-9, 72 h
[3] = system: Epidermal growth factor receptor (Homo sapiens), P00533 [L858R,T790M,C797S]; experiment: Inhibition of EGFR L858R/T790M/C797S mutant (unknown origin) at 1 uM relative to control
A549 = experiment: Antiproliferative activity against human A549 cells assessed as inhibition of cell growth incubated for 72 hrs by CCK-8 assay; type: functional, cell-based; conditions: A549, 72 h
[4] = biological target: Epidermal growth factor receptor (Homo sapiens, UniProt P00533, C797S/L858R/T790M); experiment: Inhibition of EGFR L858R/T790M/C797S mutant (unknown origin)
A-431 = experiment: Antiproliferative activity against human A-431 cells assessed as inhibition of cell growth incubated for 72 hrs by CCK-8 assay; type: functional, cell-based; conditions: A-431, 72 h
PC-9 [5] = experiment: Induction of apoptosis in human PC-9 cells expressing EGFR L858R/T790M/C797S mutant assessed as dead cells at 0.25 uM incubated for 24 hrs by annexin-V/propidium iodide staining-based flow cytometry analysis (reference value: 0.43 %); type: functional
PC-9 [6] = experiment: Induction of apoptosis in human PC-9 cells expressing EGFR L858R/T790M/C797S mutant assessed as early apoptotic cells at 0.25 uM incubated for 24 hrs by annexin-V/propidium iodide staining-based flow cytometry analysis (reference value: 0.3 %); type: functional
PC-9 [7] = experiment: Induction of apoptosis in human PC-9 cells expressing EGFR L858R/T790M/C797S mutant assessed as late apoptotic cells at 0.25 uM incubated for 24 hrs by annexin-V/propidium iodide staining-based flow cytometry analysis (reference value: 0.14 %); type: functional
PC-9 [8] = experiment: Induction of apoptosis in human PC-9 cells expressing EGFR L858R/T790M/C797S mutant assessed as viable cells at 0.25 uM incubated for 24 hrs by annexin-V/propidium iodide staining-based flow cytometry analysis (reference value: 99.1 %); type: functional

Chain of Epidermal growth factor receptor (Homo sapiens), P00533 [L858R,T790M,C797S] (P00533 whole entry T790M/C797S/L858R): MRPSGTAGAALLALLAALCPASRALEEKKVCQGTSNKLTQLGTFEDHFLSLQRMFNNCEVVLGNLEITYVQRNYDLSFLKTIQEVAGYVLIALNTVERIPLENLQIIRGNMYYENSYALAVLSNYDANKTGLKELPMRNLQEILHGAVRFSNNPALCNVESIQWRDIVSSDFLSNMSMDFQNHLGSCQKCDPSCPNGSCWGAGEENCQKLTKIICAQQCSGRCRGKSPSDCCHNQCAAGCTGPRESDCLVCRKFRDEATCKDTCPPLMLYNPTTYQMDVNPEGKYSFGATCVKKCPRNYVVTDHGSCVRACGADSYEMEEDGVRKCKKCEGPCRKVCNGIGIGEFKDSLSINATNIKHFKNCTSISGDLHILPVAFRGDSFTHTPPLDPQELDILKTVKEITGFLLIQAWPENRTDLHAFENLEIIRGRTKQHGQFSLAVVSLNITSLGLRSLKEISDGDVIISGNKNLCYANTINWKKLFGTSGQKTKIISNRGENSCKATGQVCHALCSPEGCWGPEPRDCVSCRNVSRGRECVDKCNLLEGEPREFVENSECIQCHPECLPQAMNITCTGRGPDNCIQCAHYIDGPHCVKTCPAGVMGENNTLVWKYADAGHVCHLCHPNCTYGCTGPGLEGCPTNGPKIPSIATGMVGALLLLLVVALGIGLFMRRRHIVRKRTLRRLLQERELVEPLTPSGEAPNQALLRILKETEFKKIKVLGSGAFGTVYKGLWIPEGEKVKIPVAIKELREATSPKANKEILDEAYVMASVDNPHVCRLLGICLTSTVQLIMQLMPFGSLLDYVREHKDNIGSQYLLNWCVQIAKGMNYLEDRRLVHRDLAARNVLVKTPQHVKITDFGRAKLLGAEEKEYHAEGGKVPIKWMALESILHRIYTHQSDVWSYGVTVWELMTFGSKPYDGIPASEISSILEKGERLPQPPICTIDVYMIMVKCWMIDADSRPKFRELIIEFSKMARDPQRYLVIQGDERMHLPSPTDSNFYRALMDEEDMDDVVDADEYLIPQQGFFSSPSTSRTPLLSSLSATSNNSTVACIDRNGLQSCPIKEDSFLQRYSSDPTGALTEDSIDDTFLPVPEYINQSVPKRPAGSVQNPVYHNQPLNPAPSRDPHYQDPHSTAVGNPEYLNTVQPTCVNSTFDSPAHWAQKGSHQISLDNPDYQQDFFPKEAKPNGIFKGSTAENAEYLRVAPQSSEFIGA
Chain of Epidermal growth factor receptor (P00533 25-1210 T790M/C797S/L858R limits assumed): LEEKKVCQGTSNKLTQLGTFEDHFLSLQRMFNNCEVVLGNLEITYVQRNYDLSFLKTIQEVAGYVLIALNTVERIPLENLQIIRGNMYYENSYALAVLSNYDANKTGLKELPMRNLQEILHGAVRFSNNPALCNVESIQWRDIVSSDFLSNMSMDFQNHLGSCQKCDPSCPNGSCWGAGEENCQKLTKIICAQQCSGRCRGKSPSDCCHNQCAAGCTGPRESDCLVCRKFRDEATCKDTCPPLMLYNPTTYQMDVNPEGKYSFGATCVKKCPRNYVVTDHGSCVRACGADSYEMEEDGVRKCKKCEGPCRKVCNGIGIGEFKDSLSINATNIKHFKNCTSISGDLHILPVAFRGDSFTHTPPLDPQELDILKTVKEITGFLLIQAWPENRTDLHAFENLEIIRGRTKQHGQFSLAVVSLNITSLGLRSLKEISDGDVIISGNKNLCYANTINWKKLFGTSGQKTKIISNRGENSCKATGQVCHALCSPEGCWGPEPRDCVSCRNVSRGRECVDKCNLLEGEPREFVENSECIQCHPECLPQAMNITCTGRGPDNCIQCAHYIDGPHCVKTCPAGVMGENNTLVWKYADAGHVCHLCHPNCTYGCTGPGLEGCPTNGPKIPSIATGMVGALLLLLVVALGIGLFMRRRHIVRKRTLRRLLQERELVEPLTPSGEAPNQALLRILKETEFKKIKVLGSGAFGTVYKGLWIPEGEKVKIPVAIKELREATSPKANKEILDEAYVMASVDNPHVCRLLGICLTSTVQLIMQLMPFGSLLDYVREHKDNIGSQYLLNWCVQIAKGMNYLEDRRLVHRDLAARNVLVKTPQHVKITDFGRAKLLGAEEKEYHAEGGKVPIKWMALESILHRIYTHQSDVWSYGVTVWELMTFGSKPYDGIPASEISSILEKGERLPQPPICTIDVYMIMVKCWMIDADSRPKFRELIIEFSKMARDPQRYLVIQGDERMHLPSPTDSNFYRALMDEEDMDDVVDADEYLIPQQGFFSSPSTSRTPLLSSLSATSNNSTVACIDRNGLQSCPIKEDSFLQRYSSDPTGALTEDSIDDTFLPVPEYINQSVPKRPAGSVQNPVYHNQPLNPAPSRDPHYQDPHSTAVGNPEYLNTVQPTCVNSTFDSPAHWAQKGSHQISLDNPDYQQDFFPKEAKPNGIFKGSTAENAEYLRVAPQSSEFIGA

inhibition [1]	inhibition [3]	Structure (SMILES)	other results
78%	82%	COc1cc(N2CCC(N3CCN(C)CC3)CC2)ccc1Nc1ncc2cc(CNc3ccccc3)n(C3CCCC3)c2n1	IC50 (PC-9 [2]): 206 nM; IC50 (A549): 2980 nM; IC50 [4]: 55 nM; IC50 (A-431): 3150 nM
0.5%	13%	C=CC(=O)Nc1cc(Nc2ncc3cc(C(=O)Nc4ccc5c(c4)OCO5)n(C4CCCC4)c3n2)c(OC)cc1N(C)CCN(C)C	
18%	26%	C=CC(=O)Nc1cc(Nc2ncc3cc(C(=O)Nc4ccccc4)n(C4CCCC4)c3n2)c(OC)cc1N(C)CCN(C)C	
80%	83%	COc1cc(N2CCC(N(C)C)CC2)ccc1Nc1ncc2cc(CNc3ccccc3)n(C3CCCC3)c2n1	IC50 (PC-9 [2]): 261 nM; IC50 (A549): 1630 nM; IC50 [4]: 10 nM; IC50 (A-431): 3080 nM
12%	16%	C=CC(=O)Nc1cc(Nc2ncc3cc(C(=O)Nc4cccc(N(C)C)c4)n(C4CCCC4)c3n2)c(OC)cc1N(C)CCN(C)C	
5.2%	22%	C=CC(=O)Nc1cc(Nc2ncc3cc(C(=O)Nc4cccc(O)c4)n(C4CCCC4)c3n2)c(OC)cc1N(C)CCN(C)C	
41%	56%	C=CC(=O)Nc1cc(Nc2ncc3cc(CNc4cccc(OC)c4)n(C4CCCC4)c3n2)c(OC)cc1N(C)CCN(C)C	
48%	61%	C=CC(=O)Nc1cc(Nc2ncc3cc(CNc4cccc(C)c4)n(C4CCCC4)c3n2)c(OC)cc1N(C)CCN(C)C	
7.3%	8.7%	C=CC(=O)Nc1cc(Nc2ncc3cc(C(=O)Nc4ccc(OC)c(OC)c4)n(C4CCCC4)c3n2)c(OC)cc1N(C)CCN(C)C	
-2.3%	-0.3%	C=CC(=O)Nc1cc(Nc2ncc3cc(C(=O)Nc4cccc(OC)c4)n(C4CCCC4)c3n2)c(OC)cc1N1CCN(CCOC)CC1	
-1.4%	-8.4%	C=CC(=O)Nc1cc(Nc2ncc3cc(CNc4cc(C)cc(C)c4)n(C4CCCC4)c3n2)c(OC)cc1N(C)CCN(C)C	
11%	17%	C=CC(=O)Nc1cc(Nc2ncc3cc(C(=O)Nc4cccc(OC)c4)n(C4CCCC4)c3n2)c(OC)cc1N(C)CCN(C)C	
88%	90%	CN(C)CCN(C)c1ccc(Nc2ncc3cc(CNc4ccccc4)n(C4CCCC4)c3n2)cc1	IC50 (PC-9 [2]): 248 nM; IC50 (A549): 426 nM; IC50 [4]: 304 nM; IC50 (A-431): 1120 nM
15%	16%	C=CC(=O)Nc1cc(Nc2ncc3cc(C(=O)Nc4cccc(OC)c4)n(C4CCCC4)c3n2)c(OC)cc1N1CCC(N(C)C)CC1	
-5%	-1.3%	C=CC(=O)Nc1cc(Nc2ncc3cc(C(=O)Nc4cccc(OC)c4)n(C)c3n2)c(OC)cc1N(C)CCN(C)C	
2.8%	9.5%	C=CC(=O)Nc1cc(Nc2ncc3cc(C(=O)Nc4ccc(OC)cc4)[nH]c3n2)c(OC)cc1N(C)CCN(C)C	
7%	7.8%	C=CC(=O)Nc1cc(Nc2ncc3cc(C(=O)Nc4cccc(OC)c4)n(C4CC4)c3n2)c(OC)cc1N(C)CCN(C)C	
6.7%	14%	C=CC(=O)Nc1cc(Nc2ncc3cc(C(=O)Nc4cccc(C)c4)n(C4CCCC4)c3n2)c(OC)cc1N(C)CCN(C)C	
21%	37%	C=CC(=O)Nc1cc(Nc2ncc3cc(C(=O)Nc4ccccc4)n(C4CCCC4)c3n2)ccc1N1CCN(C)CC1	
4.8%	6.5%	C=CC(=O)Nc1cc(Nc2ncc3cc(C(=O)NC4CCCCC4)n(C4CCCC4)c3n2)c(OC)cc1N(C)CCN(C)C	
1.4%	3.2%	C=CC(=O)Nc1cc(Nc2ncc3cc(C(=O)Nc4cccc(OC)c4)n(C4CCCC4)c3n2)c(OC)cc1N1CCOCC1	

The remaining lines, values behind:

Structure (SMILES)	inhibition [1]	inhibition [3]	other results
C=CC(=O)Nc1cc(Nc2ncc3cc(C(=O)Nc4ccc(F)c(Cl)c4)n(C4CCCC4)c3n2)c(OC)cc1N(C)CCN(C)C	8.1%	10%	
C=CC(=O)Nc1cc(Nc2nccc(-c3cn(C)c4ccccc34)n2)c(OC)cc1N(C)CCN(C)C [OSIMERTINIB]			Activity (PC-9 [5]): 1.1%; Activity (PC-9 [6]): 3.83%; IC50 (PC-9 [2]): 3250 nM; Activity (PC-9 [7]): 4.75%; IC50 (A549): 784 nM; IC50 (A-431): […]; Activity (PC-9 [8]): 90.3%
C=CC(=O)Nc1cc(Nc2ncc3cc(C(=O)Nc4cccc(C#N)c4)n(C4CCCC4)c3n2)c(OC)cc1N(C)CCN(C)C	3.7%	3%	
C=CC(=O)Nc1cc(Nc2ncc3cc(C(=O)Nc4cccc(OC)c4)n(C(C)C)c3n2)c(OC)cc1N(C)CCN(C)C	9.3%	12%	
C=CC(=O)Nc1cc(Nc2ncc3cc(C(=O)Nc4cccc(OC)c4)n(-c4ccccc4)c3n2)c(OC)cc1N(C)CCN(C)C	4.1%	6%	
C=CC(=O)Nc1cc(Nc2ncc3cc(C(=O)Nc4ccnc(C)c4)n(C4CCCC4)c3n2)c(OC)cc1N(C)CCN(C)C	-10%	8.3%	
C=CC(=O)Nc1cc(Nc2ncc3cc(C(=O)Nc4ccccc4)n(C4CCCC4)c3n2)c(OC)cc1N1CCN(C)CC1	23%	23%	
C=CC(=O)Nc1cc(Nc2ncc3cc(CNc4c(C)cccc4C)n(C4CCCC4)c3n2)c(OC)cc1N(C)CCN(C)C	23%	40%	
C=CC(=O)Nc1cc(Nc2ncc3cc(C(=O)Nc4cc(OC)c(OC)c(OC)c4)n(C4CCCC4)c3n2)c(OC)cc1N(C)CCN(C)C	3.1%	5.3%	
C=CC(=O)Nc1cc(Nc2ncc3cc(C(=O)Nc4ccnc(OC)c4)n(C4CCCC4)c3n2)c(OC)cc1N(C)CCN(C)C	-2.6%	4.1%	
C=CC(=O)Nc1cc(Nc2ncc3cc(C(=O)Nc4ccccc4OC)n(C4CCCC4)c3n2)c(OC)cc1N(C)CCN(C)C	7.5%	18%	
C=CC(=O)Nc1cc(Nc2ncc3cc(C(=O)Nc4ccccc4)n(C4CCCC4)c3n2)c(OC)cc1N1CCN(C(C)C)CC1	18%	21%	
C=CC(=O)Nc1cc(Nc2ncc3cc(C(=O)NC4CCCc5ccccc54)n(C4CCCC4)c3n2)c(OC)cc1N(C)CCN(C)C (stereo not drawn)	13%	23%	
C=CC(=O)Nc1cc(Nc2ncc3cc(C(=O)Nc4cccc(C(F)(F)F)c4)n(C4CCCC4)c3n2)c(OC)cc1N(C)CCN(C)C	4.7%	10%	
C=CC(=O)Nc1cc(Nc2ncc3cc(C(=O)Nc4cccc(OC(F)(F)F)c4)n(C4CCCC4)c3n2)c(OC)cc1N(C)CCN(C)C	-1.9%	0.6%	
C=CC(=O)Nc1cc(Nc2ncc3cc(C(=O)Nc4ccccc4)n(C4CCCC4)c3n2)c(OC)cc1N1CCC(N2CCN(C)CC2)CC1	16%	20%	
C=CC(=O)Nc1cc(Nc2ncc3cc(C(=O)Nc4cccc(OC)c4)n(C4CCCCC4)c3n2)c(OC)cc1N(C)CCN(C)C	1.1%	4.9%	

— ChEMBL document CHEMBL5120829, “Discovery and structural optimization of potent epidermal growth factor receptor (EGFR) inhibitors against L858R/T790M/C797S resistance mutation for lung cancer treatment” (Eur J Med Chem, 2022)
